The conditions of data set [1]: one dose treatment, nude mice bearing MCF-7 xenograft tumors; cited from earlier work.
The conditions of data set [2]: human liver microsomes; cited from earlier work. For orientation: Liver microsomes are a subcellular fraction often used to study metabolism.

Like-named read-outs stand apart in the source and are kept apart here.

Take `COc1ccc2c(c1)NC(=O)CN2c1nc(C)nc2ccccc12` [Compound 2, 7-Methoxy-4-(2-methylquinazolin-4-yl)-3,4-dihydroquinoxalin-2(1H)-one]: the lethal dose in data set [1] was 4 mg/kg. Moreover, the body weight end (0.25 mg/kg iv Q5D × 4) is 25.96 ± 1.54 g, the body weight end (0.5 mg/kg iv Q5D × 4) was determined as 23.85 ± 1.57 g and the body weight end (1.0 mg/kg iv Q5D × 4) is listed as 20.50 ± 3.27 g. Also, the body weight start by setting is: (0.25 mg/kg iv Q5D × 4) 22.44 ± 1.27 g; (0.5 mg/kg iv Q5D × 4) 22.28 ± 1.33 g; (1.0 mg/kg iv Q5D × 4) 22.13 ± 1.24 g. For the setting “mice, 1.0 mg/kg”, the signs of toxicity result was “without obvious signs of toxicity”. In data set [2], the “metabolic stability in vitro t1/2” value is reported as 55 min.

(Values after article PMC6432920 (Journal of medicinal chemistry, 2017).)
